Assay results published in patent US11246846B2, “Trisodium citrate compositions having enhanced uptake across digestive mucosa” (priority 2017, dated 2022).
Where two headings read alike, the source gives them in different places. One block for each molecule: values may come before it.

Tests used:
Caco2 monolayer [1] = assay: Sarcosine and L-Leucine permeability through Caco2 monolayer with/without TSC (Example VI); assay type: in vitro ADME, human; details: for sarcosine diffusion across Caco2: 10 mM each in DPBS, estimation by subtraction
Excerpt: On analysis it was discovered that a peak in the receiver side samples which had not interfered with previous samples eluted at the same time as the Sarcosine. The results were adjusted by averaging this peak from time points in previous studies and accordingly, the results represent an estimation by subtraction.

Caco2 monolayer [2] = assay: Creatine and leucine diffusion across Caco-2 monolayer, sodium/citrate sources (Example II); assay type: in vitro ADME, human; details: added at 10 mM to creatine monohydrate and leucine
Procedure: More particularly, after 21 days of growth in Corning® Transwell 6 well plat, trans-epithelial electrical resistance (TEER) was measured across the Caco2 monolayer using an EVOM II TEER meter with an Endohm 24SNAP measuring chambers. Cells were considered ready for use if the average TEER value reached approximately 900 Ohm*cm2. The Caco2 monolayer was then equilibrated in DPBS at 37° C. for 15 minutes. The apical solution was then removed and replaced with the various solutions to be tested. Basolateral chambers were sampled at 15, 30, 45, 60, 75 and 90 minutes and replaced with fresh DPBS. All samples were filtered at 0.45 μm and examined by HPLC. The HPLC analysis utilized a 250 mm×4.6 mm, 5 μm Thermo Scientific BDS Hypersil base deactivated C18 column. The mobile phase consisted of 0.5 M ammonium sulphate at a flow rate of 1.5 m/min. Sample detection was performed at 206 nm using a photodiode array. For this Example II, four formulations were studied, with chemicals present at 10 mM:
For the experiments in this study samples from each formulation were monitored apical to basolateral through a Caco-2 membrane registering an average TEER of 1650 Ohm*cm^2.

Caco-2 monolayer = assay: Leucine permeation across Caco-2 model intestinal barrier (Example I); assay type: in vitro ADME, human
Excerpt: Initially, in order to make a meaningful evaluation of sodium transport of branched-chain amino acids across eukaryotic mucosal cells of the human digestive tract, the inventors elected to test leucine transport using the Caco-2 monolayer model similar to that described by Dash, et al. in “Evaluation of Creatine Transport Using Caco-2 Monolayers” id. The tests were undertaken using a Caco-2 cells so as to more closely approximate transport of creatine and branched-chain amino acids across mucosal cell membranes in vivo than might be reflected in other utilizing non-human cell sources or non-mucosa cell sources. In the permeation tests illustrated herein, simulated gastric and intestinal buffers were made with 0.2 normal (N) NaOH, made by mixing 1 g NaOH as needed with 125 mL deionized water. To simulate intestinal fluid without enzymes, 6.8 g monobasic potassium phosphate were mixed in 77 mL 0.2 N sodium hydroxide, and pH adjusted to 6.8±0.1 using NaOH or HCl, as needed. Thereafter, the solution was diluted to 1 L with deionized water, with a final pH of about 6.8±0.1. To simulate gastric fluid without enzymes, 2.0 g sodium chloride was added to 7.0 mL concentrated HCl, and then diluted to 1 L with deionized water. The pH was approximately 1.2
A repetition in a series of three repetitions was then undertaken to examined the changes in permeation in the presence of a different form of sodium as compared to leucine alone in Hank's Balanced salt solution across a Caco-2 model intestinal barrier (TEER≥1000 ohm*cm2). […] Leucine permeation across the Caco-2 monolayer was measured at 15, 30, 45, 60, 75 and 90 minutes after test initiation in milligrams of leucine per centimeter2 (mg/cm2). Data is summarized in Table I below and illustrated in FIG. 1.

Caco2 monolayer [3] = assay: Valine permeability across Caco2 monolayer with/without TSC (Example X); assay type: in vitro ADME, human; details: for valine diffusion across Caco2: 10 mM in DPBS
Procedure: Undyed isotonic DPBS was used as receiver and donor buffer rather than HBSS due to interference with HBSS components and Valine in the HPLC. In brief 3 mM 10 mM Valine in DPBS alone or with 10 mM trisodium citrate was added to the donor chamber of each of 3 side by side diffusion cells with a confluent Caco 2 Monolayer between (TEER˜900 Ohm*cm2). […] Data is summarized below in Table X and graphically illustrated in FIG. 17.

Caco2 monolayer [4] = assay: L-Citrulline and L-Leucine permeability through Caco2 monolayer with/without TSC (Example V); assay type: in vitro ADME, human; details: for citrulline diffusion across Caco2: 10 mM each in DPBS
Procedure: (§1) Again, undyed isotonic DPBS was used as receiver and donor buffer rather than HBSS due to interference with HBSS components in the HPLC. […] Samples were taken at 15 minute intervals for 90 minutes and replaced with fresh isotonic DPBS. Samples were taken from donor chamber at time 0 and at 90 minutes.

Caco2 monolayer [5] = assay type: in vitro ADME, human; details: for arginine diffusion across Caco2: human, 10 mM
Excerpt: In further experiments were undertaken using a Caco-2 cellular model similar to that described in connection with Example II above. […] For these experiments undyed isotonic DPBS was used as receiver and donor buffer rather than HBSS due to interference with HBSS components in the HPLC. […] The results of these studies in graphical form are illustrated in FIGS. 6 and 7.

Caco2 monolayer [6] = details: for glutathione diffusion across Caco2: human, 10 mM
Procedure: as §1, with “isotonic DPBS as receiver” for “isotonic DPBS was used as receiver”, “than HBSS was used due to” for “than HBSS due to”

Caco 2 Monolayer = assay: L-Arginine and L-Citrulline diffusion across Caco2 monolayer with/without TSC (Example III); assay type: in vitro ADME, human; details: for arginine diffusion across Caco2: human, 10 mM; for citrulline diffusion across Caco2: 10 mM in DPBS
Procedure: Thereafter, further diffusion studies were undertaken using a Caco-2 cellular model similar to that described in connection with Example II above. Four formulations were studied, with chemicals present at 10 mM: […]
For these experiments undyed isotonic DPBS was used as the receiver and donor buffer rather than HBSS due to interference with HBSS components in the HPLC. […] Below are the results of these studies.

Caco2 monolayer [7] = assay: Iso-leucine permeability through Caco2 monolayer with/without TSC (Example IX); assay type: in vitro ADME, human; details: for iso-leucine diffusion across Caco2: 10 mM in DPBS
Procedure: Undyed isotonic DPBS was used as receiver and donor buffer rather than HBSS due to interference with HBSS components and Valine in the HPLC. In brief 3 mM 10 mM Isoleucine or Valine in DPBS alone or with 10 mM trisodium citrate was added to the donor chamber of each of 3 side by side diffusion cells with a confluent Caco 2 Monolayer between (TEER˜900 Ohm*cm2). […] Below are the results of this study in table form, which are graphically illustrated in FIG. 16.

Sarcosine permeability in the presence of TSC (Caco2 monolayer [1]): enhanced
sarcosine diffusion across Caco2 (Caco2 monolayer [1]; 15 min): 0.496 μM/cm^2
sarcosine diffusion across Caco2 (Caco2 monolayer [1]; 30 min): 0.405 μM/cm^2
sarcosine diffusion across Caco2 (Caco2 monolayer [1]; 45 min): 0.974 μM/cm^2
sarcosine diffusion across Caco2 (Caco2 monolayer [1]; 60 min): 1.423 μM/cm^2
sarcosine diffusion across Caco2 (Caco2 monolayer [1]; 75 min): 2.102 μM/cm^2
sarcosine diffusion across Caco2 (Caco2 monolayer [1]; 90 min): 1.801 μM/cm^2
Structure (SMILES): CNCC(=O)O [Sarcosine alone, Sarcosine]

Structure (SMILES): [Cl-].[Na+] [sodium chloride]
effect on leucine permeability (Caco2 monolayer [2]): did produce an effect
effect on permeability of creatine monohydrate (Caco2 monolayer [2]): enhanced

Structure (SMILES): O=C1O[C@H]([C@@H](O)CO)C([O-])=C1O.[Na+] [sodium ascorbate]
permeation of leucine in the presence of the sodium source (Caco-2 monolayer; compared to leucine alone / sodium ascorbate): slight increase

valine diffusion across Caco2 (Caco2 monolayer [3]; 15 min): 1.388 μM/cm^2
valine diffusion across Caco2 (Caco2 monolayer [3]; 30 min): 1.431 μM/cm^2
valine diffusion across Caco2 (Caco2 monolayer [3]; 45 min): 1.537 μM/cm^2
valine diffusion across Caco2 (Caco2 monolayer [3]; 60 min): 1.682 μM/cm^2
valine diffusion across Caco2 (Caco2 monolayer [3]; 75 min): 1.841 μM/cm^2
valine diffusion across Caco2 (Caco2 monolayer [3]; 90 min): 2.081 μM/cm^2
Structure (SMILES): CC(C)[C@H](N)C(=O)O [Valine alone, Valine]
permeability shift in the presence of trisodium citrate (Caco2 monolayer [3]; compared to iso-leucine and leucine): significantly greater permeability shift and overall higher permeability

L-Leucine permeability in the presence of TSC (Caco2 monolayer [1]; in the presence of sarcosine): enhanced
L-Leucine permeability in the presence of TSC (Caco2 monolayer [4]; with L-Citrulline): enhanced
L-Leucine permeability in the presence of trisodium citrate (Caco2 monolayer [5]; Caco-2): enhanced
Leucine permeation across Caco-2 monolayer (Caco-2 monolayer; human, Caco-2, 15 min): 0.036 mg/cm2
Leucine permeation across Caco-2 monolayer (Caco-2 monolayer; human, Caco-2, 30 min): 0.052 mg/cm2
Leucine permeation across Caco-2 monolayer (Caco-2 monolayer; human, Caco-2, 45 min): 0.078 mg/cm2
Leucine permeation across Caco-2 monolayer (Caco-2 monolayer; human, Caco-2, 60 min): 0.106 mg/cm2
Leucine permeation across Caco-2 monolayer (Caco-2 monolayer; human, Caco-2, 75 min): 0.128 mg/cm2
Baseline adj for Leucine w/o Na (Caco-2 monolayer; human, Caco-2, 90 min): 0.00 mg/cm2
Leucine permeation across Caco-2 monolayer (Caco-2 monolayer; human, Caco-2, 90 min): 0.151 mg/cm2
effect on the permeability of glutathione (Caco2 monolayer [6]; Caco-2): no noticeable effect
permeability of Leucine in the presence of trisodium citrate (Caco2 monolayer [6]; Caco-2): enhanced
Structure (SMILES): CC(C)C[C@H](N)C(=O)O [Leucine]

L-Arginine permeability in the presence of trisodium citrate (Caco2 monolayer [5]; Caco-2): enhanced
arginine diffusion across Caco2 (Caco2 monolayer [5]; Caco-2, 15 min): 1.007 μM/cm^2
arginine diffusion across Caco2 (Caco2 monolayer [5]; Caco-2, 30 min): 1.511 μM/cm^2
arginine diffusion across Caco2 (Caco2 monolayer [5]; Caco-2, 45 min): 1.999 μM/cm^2
arginine diffusion across Caco2 (Caco2 monolayer [5]; Caco-2, 60 min): 2.432 μM/cm^2
arginine diffusion across Caco2 (Caco2 monolayer [5]; Caco-2, 75 min): 2.982 μM/cm^2
arginine diffusion across Caco2 (Caco2 monolayer [5]; Caco-2, 90 min): 3.237 μM/cm^2
arginine diffusion across Caco2 (Caco 2 Monolayer; Caco-2, 15 min): 0.988 μM/cm^2
arginine diffusion across Caco2 (Caco 2 Monolayer; Caco-2, 30 min): 1.453 μM/cm^2
arginine diffusion across Caco2 (Caco 2 Monolayer; Caco-2, 45 min): 2.033 μM/cm^2
arginine diffusion across Caco2 (Caco 2 Monolayer; Caco-2, 60 min): 2.578 μM/cm^2
arginine diffusion across Caco2 (Caco 2 Monolayer; Caco-2, 75 min): 3.005 μM/cm^2
arginine diffusion across Caco2 (Caco 2 Monolayer; Caco-2, 90 min): 3.448 μM/cm^2
Structure (SMILES): N=C(N)NCCC[C@H](N)C(=O)O [L-Arginine alone, L-Arginine]

Glutathione permeation in the presence of trisodium citrate (Caco2 monolayer [6]; Caco-2): significantly increased
glutathione diffusion across Caco2 (Caco2 monolayer [6]; Caco-2, 15 min): 0.177 μM/cm^2
glutathione diffusion across Caco2 (Caco2 monolayer [6]; Caco-2, 30 min): 0.467 μM/cm^2
glutathione diffusion across Caco2 (Caco2 monolayer [6]; Caco-2, 45 min): 0.731 μM/cm^2
glutathione diffusion across Caco2 (Caco2 monolayer [6]; Caco-2, 60 min): 0.977 μM/cm^2
glutathione diffusion across Caco2 (Caco2 monolayer [6]; Caco-2, 75 min): 1.227 μM/cm^2
glutathione diffusion across Caco2 (Caco2 monolayer [6]; Caco-2, 90 min): 1.456 μM/cm^2
Structure (SMILES): N[C@@H](CCC(=O)N[C@@H](CS)C(=O)NCC(=O)O)C(=O)O [Glutathione alone, Glutathione]

iso-leucine diffusion across Caco2 (Caco2 monolayer [7]; 15 min): 0.271 μM/cm^2
iso-leucine diffusion across Caco2 (Caco2 monolayer [7]; 30 min): 0.614 μM/cm^2
iso-leucine diffusion across Caco2 (Caco2 monolayer [7]; 45 min): 0.978 μM/cm^2
iso-leucine diffusion across Caco2 (Caco2 monolayer [7]; 60 min): 1.333 μM/cm^2
iso-leucine diffusion across Caco2 (Caco2 monolayer [7]; 75 min): 1.748 μM/cm^2
iso-leucine diffusion across Caco2 (Caco2 monolayer [7]; 90 min): 2.078 μM/cm^2
Structure (SMILES): CC[C@H](C)[C@H](N)C(=O)O [Iso-leucine alone, iso-leucine]
permeability shift as a result of the addition of trisodium citrate (Caco2 monolayer [7]): substantially similar permeability shift and overall permeability increase to that exhibited by leucine

effect on L-Citrulline permeability by TSC or L-Leucine (Caco2 monolayer [4]): no significant effect
citrulline diffusion across Caco2 (Caco2 monolayer [4]; 15 min): 0.846 μM/cm^2
citrulline diffusion across Caco2 (Caco2 monolayer [4]; 30 min): 1.174 μM/cm^2
citrulline diffusion across Caco2 (Caco2 monolayer [4]; 45 min): 1.906 μM/cm^2
citrulline diffusion across Caco2 (Caco2 monolayer [4]; 60 min): 2.381 μM/cm^2
citrulline diffusion across Caco2 (Caco2 monolayer [4]; 75 min): 2.699 μM/cm^2
citrulline diffusion across Caco2 (Caco2 monolayer [4]; 90 min): 3.300 μM/cm^2
L-Citrulline change in permeability in the presence of TSC (Caco 2 Monolayer; 10 mM TSC): did not show any significant change
citrulline diffusion across Caco2 (Caco 2 Monolayer; 15 min): 2.281 μM/cm^2
citrulline diffusion across Caco2 (Caco 2 Monolayer; 30 min): 1.428 μM/cm^2
citrulline diffusion across Caco2 (Caco 2 Monolayer; 45 min): 1.415 μM/cm^2
citrulline diffusion across Caco2 (Caco 2 Monolayer; 60 min): 2.191 μM/cm^2
citrulline diffusion across Caco2 (Caco 2 Monolayer; 75 min): 2.457 μM/cm^2
citrulline diffusion across Caco2 (Caco 2 Monolayer; 90 min): 2.893 μM/cm^2
Structure (SMILES): NC(=O)NCCC[C@H](N)C(=O)O [L-Citrulline alone, L-Citrulline]
